# ChEMBL document CHEMBL5120803, “Design, synthesis and activity study of a novel PI3K degradation by hijacking VHL E3 ubiquitin ligase” (2022)
# Active and inactive are the calls of the source. No cut-off for these calls is given here.
# What was measured:
# [1] = biological target: Phosphatidylinositol 4,5-bisphosphate 3-kinase catalytic subunit alpha isoform (Homo sapiens) (UniProt P42336); experiment: Inhibition on PI3Kalpha (unknown origin) at 1 nM by kinase-glo plus luminescent assay relative to control
# HT-29 = experiment: Antiproliferative activity against human HT-29 cells assessed as inhibition of cell proliferation at 10 uM incubated for 72 hrs by CCK8 assay relative to control; format: functional; parameters: scale not given: the % may be the effect or the level left
# HCT-116 = experiment: Antiproliferative activity against human HCT-116 cells assessed as inhibition of cell proliferation at 10 uM incubated for 72 hrs by CCK8 assay relative to control; format: functional; parameters: scale not given: the % may be the effect or the level left
# HeLa = experiment: Antiproliferative activity against human HeLa cells assessed as inhibition of cell proliferation at 10 uM incubated for 72 hrs by CCK8 assay relative to control; format: functional; parameters: scale not given: the % may be the effect or the level left
# [2] = biological target: T1, von Hippel-Lindau disease tumor suppressor/Phosphatidylinositol 4,5-bisphosphate 3-kinase catalytic subunit alpha isoform (Homo sapiens) (UniProt P42336+P40337); experiment: PROTAC activity at VHL/PI3K in human HeLa cells assessed as induction of PI3Kalpha degradation at 3 uM incubated for 24 hrs by Western blotting analysis; format: cell-based
# [3] = biological target: T1, von Hippel-Lindau disease tumor suppressor/Phosphatidylinositol 4,5-bisphosphate 3-kinase catalytic subunit alpha isoform (Homo sapiens); experiment: PROTAC activity at VHL/PI3K in human HeLa cells assessed as induction of PI3Kalpha degradation at 10 uM incubated for 24 hrs by Western blotting analysis; format: cell-based
# [4] = biological target: T1, von Hippel-Lindau disease tumor suppressor/Phosphatidylinositol 4,5-bisphosphate 3-kinase catalytic subunit alpha isoform (Homo sapiens); experiment: PROTAC activity at VHL/PI3K in human HeLa cells assessed as reduction in AKT phosphorylation at 10 uM incubated for 24 hrs by Western blotting analysis; format: cell-based
# [5] = biological target: T1, von Hippel-Lindau disease tumor suppressor/Phosphatidylinositol 4,5-bisphosphate 3-kinase catalytic subunit alpha isoform (Homo sapiens); experiment: PROTAC activity at VHL/PI3K in human HeLa cells assessed as induction of PI3Kalpha degradation at 1 to 10 uM incubated for 24 hrs by Western blotting analysis; format: cell-based; settings: dose 1-10 µM
# [6] = biological target: T1, von Hippel-Lindau disease tumor suppressor/Phosphatidylinositol 4,5-bisphosphate 3-kinase catalytic subunit alpha isoform (Homo sapiens); experiment: PROTAC activity at VHL/PI3K in human HeLa cells assessed as redcution in AKT phosphorylation at 3 uM incubated for 24 hrs by Western blotting analysis; format: cell-based
# [7] = biological target: T1, von Hippel-Lindau disease tumor suppressor/Phosphatidylinositol 4,5-bisphosphate 3-kinase catalytic subunit alpha isoform (Homo sapiens); experiment: PROTAC activity at VHL/PI3K in human HeLa cells assessed as induction of PI3Kalpha degradation by Western blotting analysis; format: cell-based; settings: time 2-12 hrs, TDE = time-dependent effect
# [8] = biological target: T1, von Hippel-Lindau disease tumor suppressor/Phosphatidylinositol 4,5-bisphosphate 3-kinase catalytic subunit alpha isoform (Homo sapiens); experiment: PROTAC activity at VHL/PI3K in human HeLa cells assessed as inhibition of AKT phosphorylation by Western blotting analysis; format: cell-based; settings: time 2-12 hrs, TDE = time-dependent effect
# Phosphatidylinositol 4,5-bisphosphate 3-kinase catalytic subunit alpha isoform (Homo sapiens), sequence (P42336 whole entry, canonical isoform): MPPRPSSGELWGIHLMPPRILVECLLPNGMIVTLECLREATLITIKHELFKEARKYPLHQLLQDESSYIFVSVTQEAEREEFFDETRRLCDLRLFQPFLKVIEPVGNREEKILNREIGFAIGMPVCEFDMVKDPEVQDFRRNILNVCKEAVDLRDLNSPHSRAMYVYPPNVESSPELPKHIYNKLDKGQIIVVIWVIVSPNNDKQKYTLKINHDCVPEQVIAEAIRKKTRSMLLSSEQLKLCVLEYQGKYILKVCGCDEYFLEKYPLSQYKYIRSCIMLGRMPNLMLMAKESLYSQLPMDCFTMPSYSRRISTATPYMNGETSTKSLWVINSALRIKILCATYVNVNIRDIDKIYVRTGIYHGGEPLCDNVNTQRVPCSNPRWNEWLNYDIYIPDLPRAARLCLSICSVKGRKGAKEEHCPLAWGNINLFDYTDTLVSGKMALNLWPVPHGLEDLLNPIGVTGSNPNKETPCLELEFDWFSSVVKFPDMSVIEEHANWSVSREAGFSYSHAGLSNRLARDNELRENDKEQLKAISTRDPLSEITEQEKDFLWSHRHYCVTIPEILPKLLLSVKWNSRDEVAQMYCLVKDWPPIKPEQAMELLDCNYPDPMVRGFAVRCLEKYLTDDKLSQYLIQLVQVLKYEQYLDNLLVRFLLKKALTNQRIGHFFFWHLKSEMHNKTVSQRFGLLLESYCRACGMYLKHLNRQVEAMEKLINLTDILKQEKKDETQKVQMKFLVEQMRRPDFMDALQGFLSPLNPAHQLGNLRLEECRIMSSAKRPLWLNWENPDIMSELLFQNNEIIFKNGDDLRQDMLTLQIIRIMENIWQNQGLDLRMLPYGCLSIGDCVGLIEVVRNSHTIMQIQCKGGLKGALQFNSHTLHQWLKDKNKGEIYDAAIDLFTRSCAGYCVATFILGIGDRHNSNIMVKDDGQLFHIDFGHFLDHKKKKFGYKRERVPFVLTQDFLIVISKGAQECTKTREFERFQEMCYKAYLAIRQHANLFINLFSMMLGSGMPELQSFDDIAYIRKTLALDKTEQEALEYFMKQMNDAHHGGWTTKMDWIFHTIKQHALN
# T1 sequence (P40337 whole entry, looked up, canonical isoform): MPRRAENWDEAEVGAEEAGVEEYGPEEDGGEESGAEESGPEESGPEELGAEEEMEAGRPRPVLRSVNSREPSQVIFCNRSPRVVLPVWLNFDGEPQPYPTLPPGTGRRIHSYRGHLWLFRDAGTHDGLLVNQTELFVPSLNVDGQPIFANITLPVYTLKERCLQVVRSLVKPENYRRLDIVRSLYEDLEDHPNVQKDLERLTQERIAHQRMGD
# T1 sequence (P42336 whole entry, looked up, canonical isoform): as the sequence (P42336 whole entry, canonical isoform) above
SMILES,inhibition [1] [%],Activity [2],Activity [3],Activity [4],Activity [5],Activity [6],Activity [7],Activity [8],Activity (HT-29) [%],Activity (HCT-116) [%],Activity (HeLa) [%]
COc1ncc(-c2ccc3ncc(-c4nnc(-c5ccccc5C(=O)NCCOCCOCCOCCOCCOCC(=O)N[C@H](C(=O)N5C[C@@H](O)C[C@@H]5C(=O)NCc5ccc(-c6scnc6C)cc5)C(C)(C)C)o4)n3c2)cc1NS(=O)(=O)c1ccc(F)cc1F,51.9,–,–,–,–,–,–,–,61.35,37.32,85.58
COc1ncc(-c2ccc3ncc(-c4nnc(-c5ccccc5C(=O)O)o4)n3c2)cc1NS(=O)(=O)c1ccc(F)cc1F,67.1,–,–,–,–,–,–,–,–,8.23,1.62
COc1ncc(-c2ccc3ncc(-c4nnc(-c5ccccc5C(=O)NCCOCCOCCOCCOCCOCCOCC(=O)N[C@H](C(=O)N5C[C@@H](O)C[C@@H]5C(=O)NCc5ccc(-c6scnc6C)cc5)C(C)(C)C)o4)n3c2)cc1NS(=O)(=O)c1ccc(F)cc1F,48.6,–,–,–,–,–,–,–,–,56.24,91.27
COc1ncc(-c2ccc3ncc(-c4nnc(-c5ccccc5C(=O)NCCOCCOCCOCC(=O)N[C@H](C(=O)N5C[C@@H](O)C[C@@H]5C(=O)NCc5ccc(-c6scnc6C)cc5)C(C)(C)C)o4)n3c2)cc1NS(=O)(=O)c1ccc(F)cc1F,59.1,–,–,–,–,–,–,–,22.69,48.88,90.1
"COc1ncc(-c2ccc3ncc(-c4nnc(-c5ccccc5C(=O)NCCOCCOCCOCCOCC(=O)N[C@H](C(=O)N5CC(O)CC5C(=O)NCc5ccc(-c6scnc6C)cc5)C(C)(C)C)o4)n3c2)cc1NS(=O)(=O)c1ccc(F)cc1F (single isomer, unassigned)",57.5,–,–,–,–,–,–,–,50.35,57.87,89.6
COC(=O)c1ccccc1-c1nnc(-c2cnc3ccc(-c4cnc(OC)c(NS(=O)(=O)c5ccc(F)cc5F)c4)cn23)o1,70.2,–,–,–,–,–,–,–,80.36,91.65,99.37

# More lines, main results first:
inhibition [1] [%],Activity [2],Activity [3],Activity [4],Activity [5],Activity [6],Activity [7],Activity [8],SMILES,Activity (HT-29) [%],Activity (HCT-116) [%],Activity (HeLa) [%]
22.2,–,–,–,–,–,–,–,COc1ncc(-c2ccc3ncc(-c4nnc(-c5ccccc5C(=O)NCCCCC(=O)N[C@H](C(=O)N5C[C@@H](O)C[C@@H]5C(=O)NCc5ccc(-c6scnc6C)cc5)C(C)(C)C)o4)n3c2)cc1NS(=O)(=O)c1ccc(F)cc1F,82.88,23.94,32.2
65.2,–,–,–,–,–,–,–,"COc1ncc(-c2ccc3ncc(-c4nnc(-c5ccccc5C(=O)NCCCCCCCC(=O)N[C@H](C(=O)N5CC(O)CC5C(=O)NCc5ccc(-c6scnc6C)cc5)C(C)(C)C)o4)n3c2)cc1NS(=O)(=O)c1ccc(F)cc1F (single isomer, unassigned)",74.22,70.03,87.89
40.1,–,–,–,–,–,–,–,COc1ncc(-c2ccc3ncc(-c4nnc(-c5ccccc5C(=O)NCCOCC(=O)N[C@H](C(=O)N5C[C@@H](O)C[C@@H]5C(=O)NCc5ccc(-c6scnc6C)cc5)C(C)(C)C)o4)n3c2)cc1NS(=O)(=O)c1ccc(F)cc1F,51.09,25.32,23.41
60,Active,Active,Active,Active,Active,–,–,COc1ncc(-c2ccc3ncc(-c4nnc(-c5ccccc5C(=O)NCCCCCC(=O)N[C@H](C(=O)N5C[C@@H](O)C[C@@H]5C(=O)NCc5ccc(-c6scnc6C)cc5)C(C)(C)C)o4)n3c2)cc1NS(=O)(=O)c1ccc(F)cc1F,89.26,41.16,94.03
49.8,Active,Active,Active,Active,Active,Tde,Tde,COc1ncc(-c2ccc3ncc(-c4nnc(-c5ccccc5C(=O)NCCCCCCC(=O)N[C@H](C(=O)N5C[C@@H](O)C[C@@H]5C(=O)NCc5ccc(-c6scnc6C)cc5)C(C)(C)C)o4)n3c2)cc1NS(=O)(=O)c1ccc(F)cc1F,72.18,50.3,96.33
31.7,–,–,–,–,–,–,–,COc1ncc(-c2ccc3ncc(-c4nnc(-c5ccccc5C(=O)NCCOCCOCC(=O)N[C@H](C(=O)N5C[C@@H](O)C[C@@H]5C(=O)NCc5ccc(-c6scnc6C)cc5)C(C)(C)C)o4)n3c2)cc1NS(=O)(=O)c1ccc(F)cc1F,57.14,33.84,89.21
33.6,–,–,–,–,–,–,–,COc1ncc(-c2ccc3ncc(-c4nnc(-c5ccccc5C(=O)N[C@H](C(=O)N5C[C@@H](O)C[C@@H]5C(=O)NCc5ccc(-c6scnc6C)cc5)C(C)(C)C)o4)n3c2)cc1NS(=O)(=O)c1ccc(F)cc1F,–,95.86,30.38
